Test results as given in patent publication US9012628B2, “Crystalline form of ertapenem sodium and preparation method therefor” (CSPC Zhongqi Pharmaceutical Technology (Shijiazhuang) Co. …, priority 2010, dated 2015).

Assay: Comparative tests for stability of the crystalline form E and other crystalline forms (storage, total impurity and content)
Type: physicochemical
Settings: for Stability compared between solid forms (conclusion from Table 5): stored 1 year at 6° C. and −20° C.
Protocol: Comparative tests for stability of the crystalline form E and other crystalline forms. Crystalline form A and crystalline form B of ertapenem sodium were prepared according to the methods disclosed in WO03026572, crystalline form C of ertapenem sodium was prepared according to the method disclosed in WO03027067, crystalline form D of ertapenem sodium was prepared according to the method disclosed in WO2009150630, and amorphous product of ertapenem sodium was prepared according the method disclosed in CN1752090A. The above-mentioned crystalline forms A, B, C, D, the amorphous solid of ertapenem sodium, and the crystalline form E prepared according to Example 1 were stored for 1 year under refrigerating at 6° C. and freezing at −20° C., and were sampled at month 1, month 3, month 6, month 9, and month 12, respectively, and the total impurity and content of the reserved samples were tested, and the specific data are shown in Table 5: […]

Content (Freezing −20° C., month 0) | Total impurity (Freezing −20° C., month 0) | Content (Freezing −20° C., month 3) | Total impurity (Freezing −20° C., month 3) | Content (Freezing −20° C., month 6) | Total impurity (Freezing −20° C., month 6) | Content (Freezing −20° C., month 9) | Total impurity (Freezing −20° C., month 9) | Content (Freezing −20° C., month 12) | Total impurity (Freezing −20° C., month 12) | Content (Refrigerating 6° C., month 0) | Total impurity (Refrigerating 6° C., month 0) | Content (Refrigerating 6° C., month 3) | Total impurity (Refrigerating 6° C., month 3) | Content (Refrigerating 6° C., month 6) | Total impurity (Refrigerating 6° C., month 6) | Content (Refrigerating 6° C., month 9) | Total impurity (Refrigerating 6° C., month 9) | Content (Refrigerating 6° C., month 12) | Total impurity (Refrigerating 6° C., month 12) | Structure (SMILES) | also measured
99.2% | 0.7% | 99.2% | 0.7% | 99.1% | 0.7% | 99.2% | 0.7% | 99.1% | 0.7% | 99.2% | 0.7% | 98.6% | 1.2% | 98.1% | 1.5% | 97.6% | 2.0% | 96.9% | 3.0% | C[C@@H](O)[C@H]1C(=O)N2C(C(=O)[O-])=C(S[C@@H]3CN[C@H](C(=O)Nc4cccc(C(=O)O)c4)C3)[C@H](C)[C@H]12.[Na+] [Crystalline form A, ertapenem sodium] | Stability compared between solid forms (conclusion from Table 5): comparable stability, which is more stable than the amorphous product and the crystalline form D
98.5% | 1.2% | 98.4% | 1.2% | 98.5% | 1.3% | 98.2% | 1.5% | 98.1% | 1.7% | 98.5% | 1.2% | 97.9% | 2.1% | 94.5% | 5.3% | 92.3% | 7.1% | 90.1% | 9.3% | C[C@@H](O)[C@H]1C(=O)N2C(C(=O)[O-])=C(S[C@@H]3CN[C@H](C(=O)Nc4cccc(C(=O)O)c4)C3)[C@H](C)[C@H]12.[Na+] [Amorphous, ertapenem sodium] | –
99.2% | 0.8% | 99.2% | 0.8% | 99.1% | 0.8% | 99.2% | 0.8% | 99.2% | 0.8% | 99.2% | 0.8% | 98.7% | 1.1% | 98.2% | 1.4% | 97.8% | 1.9% | 96.9% | 3.0% | C[C@@H](O)[C@H]1C(=O)N2C(C(=O)[O-])=C(S[C@@H]3CN[C@H](C(=O)Nc4cccc(C(=O)O)c4)C3)[C@H](C)[C@H]12.[Na+] [Crystalline form C, ertapenem sodium] | Stability compared between solid forms (conclusion from Table 5): comparable stability, which is more stable than the amorphous product and the crystalline form D
99.1% | 0.8% | 99.1% | 0.8% | 99.0% | 0.9% | 99.0% | 0.8% | 98.9% | 0.9% | 99.1% | 0.8% | 98.3% | 1.4% | 98.0% | 1.7% | 97.5% | 2.1% | 96.6% | 3.3% | C[C@@H](O)[C@H]1C(=O)N2C(C(=O)[O-])=C(S[C@@H]3CN[C@H](C(=O)Nc4cccc(C(=O)O)c4)C3)[C@H](C)[C@H]12.[Na+] [Crystalline form B, ertapenem sodium] | Stability compared between solid forms (conclusion from Table 5): comparable stability, which is more stable than the amorphous product and the crystalline form D
99.1% | 0.8% | 99.0% | 0.8% | 99.1% | 0.8% | 99.0% | 0.8% | 98.9% | 0.8% | 99.1% | 0.8% | 98.5% | 1.3% | 98.1% | 1.6% | 97.5% | 2.1% | 96.8% | 3.2% | C[C@@H](O)[C@H]1C(=O)N2C(C(=O)[O-])=C(S[C@@H]3CN[C@H](C(=O)Nc4cccc(C(=O)O)c4)C3)[C@H](C)[C@H]12.[Na+] (relative stereo) [Crystalline form E, (1R,5S,6S,8R,2S*,4S*)-2-[2-[(3-carboxyphenyl)carbamoyl]-pyrrolidinyl-4-thio]-6-(1-hydroxyethyl)-1-methylcarbapenem-3-carboxylic acid monosodium salt] | Stability compared between solid forms (conclusion from Table 5): comparable stability, which is more stable than the amorphous product and the crystalline form D
98.8% | 1.0% | 98.7% | 1.1% | 98.7% | 1.1% | 98.6% | 1.2% | 98.5% | 1.2% | 98.8% | 1.0% | 98.0% | 1.9% | 96.8% | 3.1% | 94.7% | 4.6% | 93.2% | 6.5% | C[C@@H](O)[C@H]1C(=O)N2C(C(=O)[O-])=C(S[C@@H]3CN[C@H](C(=O)Nc4cccc(C(=O)O)c4)C3)[C@H](C)[C@H]12.[Na+] [Crystalline form D, ertapenem sodium] | –
